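These data come from cells grown in 96-well plates and exposed to compound for 48 hours at five concentrations. GI50 = concentration required for 50% inhibition of growth.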 Active and inactive are the calls of the source. No stated cut-off is given here; in the data, active = GI50 up to about 1.1 µM and inactive = higher.
Legend:
Experiment in all cases: NCI tumour cell line growth inhibition, 48 h
A498 = tested on: A498
ACHN = tested on: ACHN
CCRF-CEM = tested on: CCRF-CEM
HCT-15 = tested on: HCT-15
HOP-92 = tested on: HOP-92
IGROV-1 = tested on: IGROV-1
KM12 = tested on: KM12
MDA-MB-231 = tested on: MDA-MB-231
MDA-MB-435 = tested on: MDA-MB-435
MOLT-4 = tested on: MOLT-4
NCI-H522 = tested on: NCI-H522
OVCAR-5 = tested on: OVCAR-5
SF-295 = tested on: SF-295
SF-539 = tested on: SF-539
SK-MEL-2 = tested on: SK-MEL-2
SN12C = tested on: SN12C
UO-31 = tested on: UO-31
HOP-62 = tested on: HOP-62
T47D = tested on: T47D
BT-549 = tested on: BT-549

Structure (SMILES)	GI50 (A498)	GI50 (ACHN)	GI50 (CCRF-CEM)	GI50 (HCT-15)	GI50 (HOP-92)	GI50 (IGROV-1)	GI50 (KM12)	GI50 (MDA-MB-231)	GI50 (MDA-MB-435)	GI50 (MOLT-4)	GI50 (NCI-H522)	GI50 (OVCAR-5)	GI50 (SF-295)	GI50 (SF-539)	GI50 (SK-MEL-2)	GI50 (SN12C)	GI50 (UO-31)	GI50 (HOP-62)	GI50 (T47D)	GI50 (BT-549)
C[C@]12C(=O)C=CCC1=CC[C@@H]1[C@@H]2[C@H]2CC3(O)C(=O)O[C@@]4(C)[C@H]5C[C@@]6(C)[C@@H]7[C@@]2(O)[C@]1(OC[C@H]6C(=O)O5)O[C@]734 (some centres not stated)	54.6 µM (inactive)	61.9 µM (inactive)	20.8 µM (inactive)	53.7 µM	68.4 µM (inactive)	40.1 µM (inactive)	30.5 µM (inactive)	43.7 µM (inactive)	36.6 µM (inactive)	23.2 µM (inactive)	14.3 µM (inactive)	29 µM (inactive)	57.4 µM (inactive)	17.7 µM (inactive)	23 µM (inactive)	30.1 µM (inactive)	> 100 µM (inactive)			
CC1CN=C(N(C(=O)Nc2ccccc2)c2ccc(Cl)c(Cl)c2)S1 (configuration not stated)	14.3 µM (inactive)	31.6 µM (inactive)	> 10 µM (inactive)	23.2 µM	17.1 µM (inactive)	41.6 µM (inactive)	30.5 µM (inactive)	18.2 µM (inactive)		> 10 µM (inactive)		34.1 µM (inactive)	45.5 µM (inactive)	40.5 µM (inactive)	18.9 µM (inactive)	16.6 µM (inactive)	24.8 µM (inactive)	97.3 µM (inactive)	14.4 µM (inactive)	
O=c1c(Cc2ccc(Cl)cc2)nnc2sc(-c3ccc([N+](=O)[O-])cc3)nn12	20 µM (inactive)	25.9 µM (inactive)	23.2 µM (inactive)	14.6 µM	48.1 µM (inactive)	36.9 µM (inactive)	26.4 µM (inactive)	21 µM (inactive)	14.5 µM (inactive)	> 100 µM (inactive)		17.5 µM (inactive)	45.2 µM (inactive)		15.6 µM (inactive)	33.5 µM (inactive)	21.3 µM (inactive)	49.1 µM (inactive)		19.8 µM (inactive)
O=C(CN1CCOCC1)c1ccc2[nH]c(=O)oc2c1	> 100 µM (inactive)	> 100 µM (inactive)	> 100 µM (inactive)	> 100 µM		> 100 µM (inactive)	> 100 µM (inactive)	> 100 µM (inactive)	> 100 µM (inactive)	> 100 µM (inactive)		> 100 µM (inactive)	> 100 µM (inactive)	> 100 µM (inactive)	> 100 µM (inactive)	> 100 µM (inactive)	41.9 µM (inactive)	> 100 µM (inactive)		> 100 µM (inactive)
c1ccc(C[n+]2ccc3c(c2)CCCC3)cc1		64.6 µM (inactive)	> 100 µM (inactive)	> 100 µM	> 100 µM (inactive)	> 100 µM (inactive)	62.2 µM (inactive)	> 100 µM (inactive)	> 100 µM (inactive)	> 100 µM (inactive)		> 100 µM (inactive)	77.3 µM (inactive)	> 100 µM (inactive)	84.3 µM (inactive)	> 100 µM (inactive)	> 100 µM (inactive)	> 100 µM (inactive)	45.3 µM (inactive)	
CC[S+]([O-])C(=O)N(O)c1ccc(Cl)cc1 (configuration not stated)	56.4 µM (inactive)	11.1 µM (inactive)	12.6 µM (inactive)	23.8 µM	29.9 µM (inactive)		15.6 µM (inactive)	29.4 µM (inactive)	15 µM (inactive)	9.64 µM (inactive)		17.7 µM (inactive)	85.7 µM (inactive)	24.9 µM (inactive)	15.3 µM (inactive)	22.3 µM (inactive)	14.5 µM (inactive)	> 100 µM (inactive)	31.3 µM (inactive)	
N#C/C(=C\c1ccc(O)cc1O)C(N)=O	65 µM (inactive)	32.7 µM (inactive)	> 100 µM (inactive)	> 100 µM	46.1 µM (inactive)	> 100 µM (inactive)	> 100 µM (inactive)			58.6 µM (inactive)	28.3 µM (inactive)	> 100 µM (inactive)	> 100 µM (inactive)	> 100 µM (inactive)	98.4 µM (inactive)	> 100 µM (inactive)	33.6 µM (inactive)	> 100 µM (inactive)		
COC(=O)/C=C/C1C(C(=O)OC)C2(C(=O)OC)CCC1(C(=O)OC)N2 (configuration not stated)	> 100 µM (inactive)	> 100 µM (inactive)	> 100 µM (inactive)	> 100 µM	> 100 µM (inactive)	> 100 µM (inactive)	> 100 µM (inactive)			> 100 µM (inactive)	> 100 µM (inactive)	> 100 µM (inactive)	> 100 µM (inactive)	> 100 µM (inactive)	> 100 µM (inactive)	> 100 µM (inactive)	> 100 µM (inactive)	> 100 µM (inactive)		
C=C1C(=O)OC2C1C(OC(=O)/C(C)=C\C)CC1(CO1)C1C(O)C=C(C)C21O (configuration not stated)	5.02 µM (inactive)	3.16 µM (inactive)	2.65 µM (inactive)	2.81 µM	10.7 µM (inactive)	14.5 µM (inactive)	11.5 µM (inactive)			2 µM (inactive)	0.942 µM (active)	19.7 µM (inactive)	20.8 µM (inactive)	2.61 µM (inactive)	3.72 µM (inactive)	3.27 µM (inactive)	10.3 µM (inactive)	23.6 µM (inactive)		
CCCc1ccc(/N=C\c2cc(OC)c(OC)c(OC)c2)cc1	> 100 µM (inactive)	> 100 µM (inactive)	26.6 µM (inactive)	> 39.9 µM	> 51.3 µM (inactive)	> 100 µM (inactive)	> 100 µM (inactive)			> 100 µM (inactive)	> 59.2 µM (inactive)	> 100 µM (inactive)	> 100 µM (inactive)	> 100 µM (inactive)	> 100 µM (inactive)	> 100 µM (inactive)	> 100 µM (inactive)	> 100 µM (inactive)		
COc1ccc(/N=C2\C(=O)Nc3ccc(Br)cc32)cc1	38.8 µM (inactive)	15.4 µM (inactive)	13.4 µM (inactive)	14.3 µM	18.2 µM (inactive)		10.7 µM (inactive)	13.9 µM (inactive)	13.2 µM (inactive)	16.6 µM (inactive)	9.38 µM (inactive)	23.2 µM (inactive)	22.8 µM (inactive)	16.5 µM (inactive)		17.2 µM (inactive)	9.82 µM (inactive)	29.2 µM (inactive)	18.3 µM (inactive)	
CN(NC(=O)/C(=C/c1ccc(O)cc1)NC(=O)c1ccccc1)c1ccnc2cc(Cl)ccc12	18.2 µM (inactive)	18.3 µM (inactive)	17.3 µM (inactive)		17.3 µM (inactive)	16.3 µM (inactive)	17.8 µM (inactive)	20.7 µM (inactive)	17.3 µM (inactive)	16.7 µM (inactive)	21 µM (inactive)	22.5 µM (inactive)	16.4 µM (inactive)	23 µM (inactive)	22.3 µM (inactive)	24.9 µM (inactive)	5.85 µM (inactive)	15.1 µM (inactive)	20.5 µM (inactive)	
Cc1nn(CNc2ccc(F)c(Cl)c2)c(=S)n1/N=C/c1ccc(-c2ccc(Cl)cc2Cl)o1	15.1 µM (inactive)	16.6 µM (inactive)	4.16 µM (inactive)	16.9 µM		16.7 µM (inactive)	20.5 µM (inactive)	17.8 µM (inactive)	17.6 µM (inactive)	0.493 µM (active)	14.4 µM (inactive)	19.1 µM (inactive)	15.7 µM (inactive)	16.8 µM (inactive)	22.6 µM (inactive)		16.7 µM (inactive)	14.1 µM (inactive)	18.5 µM (inactive)	
CC1(C)CC[C@]2(C)CC=C3[C@]4(C)CC[C@H]5C(C)(C)C(=O)CC[C@]5(C)[C@H]4CC[C@@]3(C)[C@H]2C1	> 100 µM (inactive)	> 100 µM (inactive)	> 100 µM (inactive)	> 100 µM	> 100 µM (inactive)	> 100 µM (inactive)	> 100 µM (inactive)	> 100 µM (inactive)	> 100 µM (inactive)	> 100 µM (inactive)	> 100 µM (inactive)	> 100 µM (inactive)	> 100 µM (inactive)	> 100 µM (inactive)	> 100 µM (inactive)	> 100 µM (inactive)	> 100 µM (inactive)	> 100 µM (inactive)	> 100 µM (inactive)	
C=C1CC(c2ccc(OCCCN3C(=O)c4ccccc4C3=O)cc2)OC1=O (configuration not stated)	1.37 µM (inactive)	4.19 µM (inactive)	1.64 µM (inactive)	2.36 µM	1.36 µM (inactive)	1.06 µM (active)	3.83 µM (inactive)	3.95 µM (inactive)	2.52 µM (inactive)	1.52 µM (inactive)	0.653 µM (active)	11.4 µM (inactive)	10.5 µM (inactive)	0.123 µM (active)	1.96 µM (inactive)	3.31 µM (inactive)	3.74 µM (inactive)	16.4 µM (inactive)	2.92 µM (inactive)	
Nc1c([N+](=O)[O-])nc(Cl)c2nncn12	> 100 µM (inactive)	> 100 µM (inactive)	> 46 µM (inactive)	19.3 µM	> 100 µM (inactive)	> 100 µM (inactive)	> 100 µM (inactive)			> 100 µM (inactive)	> 74.6 µM (inactive)	> 100 µM (inactive)	> 100 µM (inactive)	> 95.5 µM (inactive)	> 100 µM (inactive)	> 100 µM (inactive)	> 100 µM (inactive)	> 100 µM (inactive)		
